Patent publication US9040524B2, “Antifungal 5,6-dihydro-4H-pyrrolo[1,2-a][1,4]-benzodiazepines and 6H-pyrrolo[1,2-a][1,4]benzodiazepines substituted with bicycle benzene derivatives” (JANSSEN PHARMACEUTICA NV, priority 2010, dated 2015)

Key:
Assay type in all cases: cell-based
Scedosporium prolificans = test: Antifungal activity in vitro, resazurin growth inhibition screen: Scedosporium prolificans; conditions: Scedosporium prolificans IHEM21157; for IC50: Lomentospora prolificans, read-out: Inf. I pIC50 (converted)
Protocol: (§1) The standard susceptibility screen was performed in 96-well plates (U-bottom, Greiner Bio-One). Serial dilutions (2-fold or 4-fold) of 20 mM compound stock solutions were made in 100% DMSO, followed by an intermediate dilution step in water. These serial dilutions (10 μl) were then spotted onto test-plates that could be stored in the dark at 4° C. for a maximum period of 2 weeks. An adequate broad dose-range was included with 64 μM as the highest in-test concentration. […] The different fungal species/isolates (Table 3a) were cryopreserved and 1/1000 diluted in medium just prior to use. A standard inoculum of 200 μl containing 10^3 colony-forming unit (cfu) was then added to each well. A positive control (100% growth=fungal culture without antifungal) and a negative control (0% growth=RPMI-MOPS medium) were included on each plate.

Cryptococcus neoformans = test: Antifungal activity in vitro, resazurin growth inhibition screen: Cryptococcus neoformans; conditions: Cryptococcus neoformans B66663; for IC50: read-out: Inf. F pIC50 (converted)
Protocol: as §1

Rhizomucor miehei = test: Antifungal activity in vitro, resazurin growth inhibition screen: Rhizomucor miehei; conditions: Rhizomucor miehei IHEM13391; for IC50: read-out: Inf. K pIC50 (converted)
Protocol: as §1

Sporothrix schenkii = test: Antifungal activity in vitro, resazurin growth inhibition screen: Sporothrix schenkii; conditions: Sporothrix schenkii B62482; for IC50: read-out: Inf. A pIC50 (converted)
Protocol: as §1

Candida parapsilosis = test: Antifungal activity in vitro, resazurin growth inhibition screen: Candida parapsilosis; conditions: Candida parapsilosis B66126; for IC50: Lodderomyces parapsilosis, read-out: Inf. D pIC50 (converted)
Protocol: as §1

Microsporum canis = test: Antifungal activity in vitro, resazurin growth inhibition screen: Microsporum canis; conditions: Microsporum canis B68128; for IC50: read-out: Inf. B pIC50 (converted)
Protocol: as §1

Aspergillus fumigatus = test: Antifungal activity in vitro, resazurin growth inhibition screen: Aspergillus fumigatus; conditions: Aspergillus fumigatus B42928; for IC50: read-out: Inf. E pIC50 (converted)
Protocol: as §1

Trichophyton rubrum = test: Antifungal activity in vitro, resazurin growth inhibition screen: Trichophyton rubrum; conditions: Trichophyton rubrum B68183; for IC50: read-out: Inf. C pIC50 (converted)
Protocol: as §1

[1] = test system: Trichophyton mentagrophytes; test: Antifungal activity in vitro, resazurin growth inhibition screen: Trichophyton mentagrophytes; conditions: Trichophyton mentagrophytes B70554; for IC50: read-out: Inf. G pIC50 (converted)
Protocol: as §1

Rhizopus oryzae = test: Antifungal activity in vitro, resazurin growth inhibition screen: Rhizopus oryzae; conditions: Rhizopus oryzae IHEM5223; for IC50: Rhizopus arrhizus, read-out: Inf. J pIC50 (converted)
Protocol: as §1

Scedosporium apiospermum = test: Antifungal activity in vitro, resazurin growth inhibition screen: Scedosporium apiospermum; conditions: Scedosporium apiospermum IHEM3817; for IC50: read-out: Inf. H pIC50 (converted)
Protocol: as §1

Compound	Inf. I pIC50 (Scedosporium prolificans)	Inf. F pIC50 (Cryptococcus neoformans)	Inf. K pIC50 (Rhizomucor miehei)	Inf. A pIC50 (Sporothrix schenkii)	Inf. D pIC50 (Candida parapsilosis)	Inf. B pIC50 (Microsporum canis)	Inf. E pIC50 (Aspergillus fumigatus)	Inf. C pIC50 (Trichophyton rubrum)	Inf. G pIC50 [1]	Inf. J pIC50 (Rhizopus oryzae)	Inf. H pIC50 (Scedosporium apiospermum)	other results
Br.Clc1cccc2c1CNC(c1ccc3c(c1)CCC3)c1cccn1-2 (stereo not drawn) [Compound 13, 7-chloro-4-(2,3-dihydro-1H-inden-5-yl)-5,6-dihydro-4H-pyrrolo[1,2-a][1,4]benzo-diazepine .HBr]	5.72	5.30	<4.19	5.15	5.52	6.36	5.70	6.47	6.95	<4.19	4.52	–
Clc1cc(Cl)c2c(c1)-n1cccc1C(c1ccc3c(c1)CCC3)=NC2 [Compound 23, 7,9-dichloro-4-(2,3-dihydro-1H-inden-5-yl)-6H-pyrrolo[1,2-a][1,4]benzodiazepine]	–	–	–	–	–	–	–	–	–	–	–	IC50 (Scedosporium prolificans): 0.603 µM; IC50 (Cryptococcus neoformans): 0.457 µM; IC50 (Rhizomucor miehei): > 64.6 µM; IC50 (Sporothrix schenkii): 33.9 µM; IC50 (Candida parapsilosis): 2 µM; IC50 (Microsporum canis): 1 µM; IC50 (Aspergillus fumigatus): 0.912 µM; IC50 (Trichophyton rubrum): 0.676 µM; IC50 [1]: 0.794 µM; IC50 (Rhizopus oryzae): > 64.6 µM; IC50 (Scedosporium apiospermum): 24 µM
Cl.Clc1cccc2c1CNC(c1ccc3c(c1)CCOC3)c1cccn1-2 (stereo not drawn) [Compound 28, 7-chloro-4-(3,4-dihydro-1H-2-benzopyran-6-yl)-5,6-dihydro-4H-pyrrolo[1,2-a]-[1,4]benzodiazepine .HCl]	4.63	4.71	4.39	<4.19	5.53	6.24	5.99	6.66	6.29	<4.19	4.97	–
Clc1cccc2c1CN=C(c1ccc3c(c1)CCOC3)c1cccn1-2 [Compound 37, 7-chloro-4-(3,4-dihydro-1H-2-benzopyran-6-yl)-6H-pyrrolo[1,2-a][1,4]benzo-diazepine]	5.85	5.88	<4.19	5.26	5.79	6.62	6.77	6.89	6.47	<4.19	4.48	–
Fc1cccc2c1CN=C(c1ccc3c(c1)CCOC3)c1cccn1-2 [Compound 39, 4-(3,4-dihydro-1H-2-benzopyran-6-yl)-7-fluoro-6H-pyrrolo[1,2-a][1,4]benzo-diazepine]	5.76	5.21	4.38	4.95	5.83	6.36	6.77	6.89	6.54	<4.19	5.40	–
Clc1cc(Cl)c2c(c1)CN=C(c1ccc3c(c1)CCO3)c1cccn1-2 [Compound 48, 8,10-dichloro-4-(2,3-dihydro-5-benzofuranyl)-6H-pyrrolo[1,2-a][1,4]benzo-diazepine]	5.79	5.70	<4.19	5.40	<4.19	6.30	5.00	6.78	6.29	<4.19	4.94	–
Cl.O=C1CCc2cc(C3NCc4c(Cl)cccc4-n4cccc43)ccc21 (stereo not drawn) [Compound 51, 5-(7-chloro-5,6-dihydro-4H-pyrrolo[1,2-a][1,4]benzodiazepin-4-yl)-2,3-dihydro-1H-inden-1-one .HCl]	5.32	4.74	4.29	4.46	4.91	5.59	5.24	5.84	5.32	<4.19	4.67	–
O=C1CCCc2cc(C3=NCc4c(F)cccc4-n4cccc43)ccc21 [Compound 59, 6-(7-fluoro-6H-pyrrolo[1,2-a][1,4]benzodiazepin-4-yl)-3,4-dihydro-1(2H)-naphthalenone]	–	–	–	–	–	–	–	–	–	–	–	IC50 (Scedosporium prolificans): 1.48 µM; IC50 (Cryptococcus neoformans): 1.12 µM; IC50 (Rhizomucor miehei): 1.48 µM; IC50 (Sporothrix schenkii): 4.27 µM; IC50 (Candida parapsilosis): 2.75 µM; IC50 (Microsporum canis): 0.372 µM; IC50 (Aspergillus fumigatus): 0.398 µM; IC50 (Trichophyton rubrum): 0.129 µM; IC50 [1]: 0.339 µM; IC50 (Rhizopus oryzae): > 12.9 µM; IC50 (Scedosporium apiospermum): 0.741 µM
Fc1cc(F)c2c(c1)-n1cccc1C(c1ccc3c(c1)CCC(F)(F)O3)=NC2 [Compound 73, 4-(2,2-difluoro-3,4-dihydro-2H-1-benzopyran-6-yl)-7,9-difluoro-6H-pyrrolo[1,2-a]-[1,4]benzodiazepine]	–	–	–	–	–	–	–	–	–	–	–	IC50 (Cryptococcus neoformans): 4.68 µM; IC50 (Sporothrix schenkii): 31.6 µM; IC50 (Candida parapsilosis): 2.14 µM; IC50 (Microsporum canis): 9.33 µM; IC50 (Aspergillus fumigatus): > 64.6 µM; IC50 (Trichophyton rubrum): 32.4 µM; IC50 [1]: 32.4 µM
FC1(F)Oc2ccc(C3=NCc4c(Cl)cccc4-n4cccc43)cc2O1 [Compound 74, 7-chloro-4-(2,2-difluoro-1,3-benzodioxol-5-yl)-6H-pyrrolo[1,2-a][1,4]benzo-diazepine]	7.05	<4.19	<4.19	<4.19	<4.19	6.87	7.08	7.39	6.58	<4.19	5.5	–
FC1(F)Oc2ccc(C3=NCc4ccc(Cl)cc4-n4cccc43)cc2O1 [Compound 75, 9-chloro-4-(2,2-difluoro-1,3-benzodioxol-5-yl)-6H-pyrrolo[1,2-a][1,4]benzo-diazepine]	<4.19	5.84	<4.19	4.85	5.09	5.74	6.24	6.85	6.42	<4.19	<4.19	–
FC1(F)Oc2ccc(C3=NCc4cccc(Cl)c4-n4cccc43)cc2O1 [Compound 76, 10-chloro-4-(2,2-difluoro-1,3-benzodioxol-5-yl)-6H-pyrrolo[1,2-a][1,4]benzo-diazepine]	5.04	5.82	4.98	5.69	5.18	6.70	5.94	6.82	6.38	4.57	5.13	–
Fc1cccc2c1CN=C(c1ccc3c(c1)OC(F)(F)O3)c1cccn1-2 [Compound 77, 4-(2,2-difluoro-1,3-benzodioxol-5-yl)-7-fluoro-6H-pyrrolo[1,2-a][1,4]benzo-diazepine]	–	–	–	–	–	–	–	–	–	–	–	IC50 (Scedosporium prolificans): 1.74 µM; IC50 (Cryptococcus neoformans): 5.37 µM; IC50 (Rhizomucor miehei): > 64.6 µM; IC50 (Sporothrix schenkii): 3.55 µM; IC50 (Candida parapsilosis): 3.39 µM; IC50 (Microsporum canis): 0.135 µM; IC50 (Aspergillus fumigatus): 0.0562 µM; IC50 (Trichophyton rubrum): 0.0195 µM; IC50 [1]: 0.115 µM; IC50 (Rhizopus oryzae): 12 µM; IC50 (Scedosporium apiospermum): 22.4 µM
CN1CCc2cc(C3=NCc4c(F)cccc4-n4cccc43)ccc21 [Compound 81, 4-(2,3-dihydro-1-methyl-1H-indol-5-yl)-7-fluoro-6H-pyrrolo[1,2-a][1,4]benzo-diazepine]	–	5.29	–	4.49	4.60	5.28	4.39	5.65	4.90	–	–	–
Clc1cccc2c1-n1cccc1C(c1ccc3c(c1)CCOC3)=NC2 [Compound 82, 10-chloro-4-(3,4-dihydro-1H-2-benzopyran-6-yl)-6H-pyrrolo[1,2-a][1,4]benzo-diazepine]	–	5.26	–	5.06	4.77	5.69	5.56	5.95	5.56	–	–	–
